Activity calls are given as the source filed them.
Columns and labels:
[1] = biological target: Transitional endoplasmic reticulum ATPase (Homo sapiens, UniProt P55072, C522A); experiment: Luminescence counterscreen assay for p97 inhibitors: dose response biochemical high throughput screening assay to identify inhibitors of the C522A mutant p97 ATPase: synthesized compounds. [Related pubchem assays: 1481, 1517, 1551 ]
[2] = biological target: Transitional endoplasmic reticulum ATPase (Homo sapiens, UniProt P55072); experiment: Luminescence dose response biochemical high throughput screening assay for inhibitors of the p97 ATPase: synthesized compounds. [Related pubchem assays: 1481, 1517 ]
Transitional endoplasmic reticulum ATPase (Homo sapiens, UniProt P55072), sequence (P55072 whole entry): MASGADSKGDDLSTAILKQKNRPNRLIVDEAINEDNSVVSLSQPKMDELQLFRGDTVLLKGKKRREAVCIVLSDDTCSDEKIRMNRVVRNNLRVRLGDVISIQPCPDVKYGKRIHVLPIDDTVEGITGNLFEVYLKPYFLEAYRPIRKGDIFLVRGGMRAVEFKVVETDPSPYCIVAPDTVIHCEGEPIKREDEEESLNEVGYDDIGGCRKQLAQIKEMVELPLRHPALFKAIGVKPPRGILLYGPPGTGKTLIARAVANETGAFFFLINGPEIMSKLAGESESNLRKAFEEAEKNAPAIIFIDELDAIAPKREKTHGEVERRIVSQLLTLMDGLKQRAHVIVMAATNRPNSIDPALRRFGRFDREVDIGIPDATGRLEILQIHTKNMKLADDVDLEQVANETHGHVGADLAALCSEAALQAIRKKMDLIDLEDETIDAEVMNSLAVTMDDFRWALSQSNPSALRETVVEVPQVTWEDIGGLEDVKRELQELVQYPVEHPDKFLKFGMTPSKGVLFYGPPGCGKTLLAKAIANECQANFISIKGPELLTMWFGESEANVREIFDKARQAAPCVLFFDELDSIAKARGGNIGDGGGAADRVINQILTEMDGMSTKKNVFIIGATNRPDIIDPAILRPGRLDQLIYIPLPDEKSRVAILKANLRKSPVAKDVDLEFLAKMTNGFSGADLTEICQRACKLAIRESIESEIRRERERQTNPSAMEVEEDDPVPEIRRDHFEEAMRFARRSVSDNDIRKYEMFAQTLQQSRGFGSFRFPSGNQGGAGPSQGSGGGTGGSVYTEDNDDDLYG

[3] = biological target: Photoreceptor-specific nuclear receptor (Homo sapiens, UniProt Q9Y5X4); experiment: ligands suppressing NR2E3 nuclear receptor activity – biochemical, TR-FRET, dose response (AID 463256); type: functional
Photoreceptor-specific nuclear receptor, sequence (Q9Y5X4 whole entry): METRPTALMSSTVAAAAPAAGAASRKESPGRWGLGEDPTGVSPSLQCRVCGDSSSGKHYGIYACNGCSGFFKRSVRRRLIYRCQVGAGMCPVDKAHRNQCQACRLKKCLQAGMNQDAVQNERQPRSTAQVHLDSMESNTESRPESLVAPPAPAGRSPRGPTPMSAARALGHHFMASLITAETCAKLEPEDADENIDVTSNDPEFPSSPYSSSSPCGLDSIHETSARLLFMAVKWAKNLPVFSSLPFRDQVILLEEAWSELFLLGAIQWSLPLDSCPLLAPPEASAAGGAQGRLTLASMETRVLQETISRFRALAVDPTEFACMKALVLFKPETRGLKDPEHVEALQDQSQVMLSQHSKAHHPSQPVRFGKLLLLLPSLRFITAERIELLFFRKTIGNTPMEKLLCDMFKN

Cytochrome P450 2C9 = Cytochrome P450 2C9 (Homo sapiens, UniProt P11712)
Cytochrome P450 2C9, sequence (P11712 whole entry): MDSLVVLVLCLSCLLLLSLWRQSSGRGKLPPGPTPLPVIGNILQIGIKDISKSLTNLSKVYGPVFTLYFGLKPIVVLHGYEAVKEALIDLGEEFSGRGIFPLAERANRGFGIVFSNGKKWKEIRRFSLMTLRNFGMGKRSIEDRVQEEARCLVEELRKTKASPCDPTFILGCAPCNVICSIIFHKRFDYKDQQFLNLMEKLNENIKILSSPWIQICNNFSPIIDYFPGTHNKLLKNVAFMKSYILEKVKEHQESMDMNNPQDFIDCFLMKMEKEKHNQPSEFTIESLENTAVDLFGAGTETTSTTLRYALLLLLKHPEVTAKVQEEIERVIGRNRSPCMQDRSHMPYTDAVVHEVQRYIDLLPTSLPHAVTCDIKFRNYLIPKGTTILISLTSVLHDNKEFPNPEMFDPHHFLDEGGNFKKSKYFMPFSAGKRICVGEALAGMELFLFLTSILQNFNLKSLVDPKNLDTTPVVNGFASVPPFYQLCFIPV

Cytochrome P450 2C19 [4] = biological target: T1, Cytochrome P450 2C19 (Homo sapiens, UniProt P33261); experiment: Cytochrome panel assay with activity outcomes. Panel member name: p450-cyp2c19 Compounds with AC50 equal or less than 10 uM are considered active; type: functional
T1 sequence (P33261 whole entry): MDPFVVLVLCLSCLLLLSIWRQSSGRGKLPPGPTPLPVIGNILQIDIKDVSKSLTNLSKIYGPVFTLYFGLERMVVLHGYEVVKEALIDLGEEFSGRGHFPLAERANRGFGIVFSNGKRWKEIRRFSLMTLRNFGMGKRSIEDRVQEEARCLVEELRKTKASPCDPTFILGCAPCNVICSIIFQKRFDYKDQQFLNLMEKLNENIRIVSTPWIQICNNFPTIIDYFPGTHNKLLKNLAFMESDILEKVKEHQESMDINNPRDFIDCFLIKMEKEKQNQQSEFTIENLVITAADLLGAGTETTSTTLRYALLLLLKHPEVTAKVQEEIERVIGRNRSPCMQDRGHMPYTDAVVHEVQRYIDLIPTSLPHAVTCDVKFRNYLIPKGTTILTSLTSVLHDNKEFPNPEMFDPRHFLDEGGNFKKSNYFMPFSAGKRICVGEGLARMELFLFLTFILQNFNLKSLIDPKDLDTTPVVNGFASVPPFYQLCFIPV

[5] = biological target: Peroxisome proliferator-activated receptor gamma/Nuclear receptor corepressor 2 (Homo sapiens, UniProt P37231+Q9Y618); experiment: Counterscreen for NR2E3 inverse agonists: TR-FRET-based biochemical high throughput dose response assay to identify inverse agonists of the interaction between peroxisome proliferator-activated receptor gamma (PPARg) and nuclear receptor co-repressor 2 (NCOR2).; type: functional
[6] = biological target: ADP-ribosylation factor GTPase-activating protein 1 (Rattus norvegicus, UniProt Q62848); experiment: Fluorescence polarization-based biochemical high throughput dose response screening assay to identify inhibitors of ADP-ribosylation factor GTPase activating protein 1 (ARFGAP1).; type: functional
ADP-ribosylation factor GTPase-activating protein 1, sequence (Q62848 whole entry): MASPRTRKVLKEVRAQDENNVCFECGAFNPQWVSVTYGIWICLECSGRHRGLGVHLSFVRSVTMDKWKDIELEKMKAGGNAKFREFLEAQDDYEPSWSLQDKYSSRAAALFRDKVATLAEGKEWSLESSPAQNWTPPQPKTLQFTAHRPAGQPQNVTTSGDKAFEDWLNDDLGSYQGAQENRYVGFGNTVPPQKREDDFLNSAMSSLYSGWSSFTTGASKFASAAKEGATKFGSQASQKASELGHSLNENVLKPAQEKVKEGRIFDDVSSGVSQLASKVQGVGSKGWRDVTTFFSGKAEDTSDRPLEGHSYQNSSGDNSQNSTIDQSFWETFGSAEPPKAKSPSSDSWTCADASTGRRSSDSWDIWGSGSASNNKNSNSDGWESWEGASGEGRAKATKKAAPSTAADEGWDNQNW

Cytochrome P450 2C19 [7] = biological target: T1, Cytochrome P450 2C19; experiment: qHTS Assay for Inhibitors and Substrates of Cytochrome P450 2C19. [Related pubchem assays: 410 ]; type: ADME; settings: read-out: Potency
[8] = biological target: T2, Alkaline phosphatase, tissue-nonspecific isozyme (Homo sapiens, UniProt P05186); experiment: potency against alkaline phosphatase TNAP – biochemical, luminescent, dose response, SAR follow-up (AID 1056)
T2 sequence (P05186 whole entry): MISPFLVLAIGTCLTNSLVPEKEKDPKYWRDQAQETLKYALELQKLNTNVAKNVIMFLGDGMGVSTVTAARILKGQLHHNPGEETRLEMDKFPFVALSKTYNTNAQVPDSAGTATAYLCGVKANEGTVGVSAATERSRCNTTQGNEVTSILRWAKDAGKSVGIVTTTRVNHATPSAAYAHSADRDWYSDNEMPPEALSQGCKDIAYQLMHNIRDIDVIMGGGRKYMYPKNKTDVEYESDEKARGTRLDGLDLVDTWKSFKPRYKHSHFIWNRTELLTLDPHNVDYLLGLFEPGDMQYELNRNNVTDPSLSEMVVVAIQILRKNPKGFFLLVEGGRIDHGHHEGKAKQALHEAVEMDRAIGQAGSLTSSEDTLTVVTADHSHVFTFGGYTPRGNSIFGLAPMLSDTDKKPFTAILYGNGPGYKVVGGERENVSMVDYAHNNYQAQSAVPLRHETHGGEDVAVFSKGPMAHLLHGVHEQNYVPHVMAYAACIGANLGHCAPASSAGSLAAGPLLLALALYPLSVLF

[9] = biological target: T3, Rac GTPase-activating protein 1 (Homo sapiens, UniProt Q9H0H5); experiment: blockers of MgcRacGAP-driven Rac1 GTP hydrolysis – biochemical, ADP Hunter fluorescence, primary and confirmatory, confirmation (AID 624330); type: functional
T3 sequence (Q9H0H5 whole entry): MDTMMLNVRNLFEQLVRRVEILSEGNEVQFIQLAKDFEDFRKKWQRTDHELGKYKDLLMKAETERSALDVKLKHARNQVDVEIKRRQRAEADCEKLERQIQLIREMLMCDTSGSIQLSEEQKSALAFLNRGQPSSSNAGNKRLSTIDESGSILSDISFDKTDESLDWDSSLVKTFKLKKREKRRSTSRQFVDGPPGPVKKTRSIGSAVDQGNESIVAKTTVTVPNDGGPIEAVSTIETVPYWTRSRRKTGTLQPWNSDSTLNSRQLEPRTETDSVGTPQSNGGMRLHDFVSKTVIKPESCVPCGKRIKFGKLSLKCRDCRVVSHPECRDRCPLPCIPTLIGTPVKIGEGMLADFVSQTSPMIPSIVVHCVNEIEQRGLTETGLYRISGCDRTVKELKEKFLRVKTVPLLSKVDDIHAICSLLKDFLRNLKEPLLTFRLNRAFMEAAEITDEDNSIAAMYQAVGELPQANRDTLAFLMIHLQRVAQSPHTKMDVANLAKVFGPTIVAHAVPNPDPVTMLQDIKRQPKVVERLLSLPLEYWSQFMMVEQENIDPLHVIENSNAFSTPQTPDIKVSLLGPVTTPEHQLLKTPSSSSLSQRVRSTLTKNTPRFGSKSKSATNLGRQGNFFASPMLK

[10] = biological target: Alkaline phosphatase, placental type (Homo sapiens, UniProt P05187); experiment: human placental alkaline phosphatase inhibition – biochemical, luminescence, confirmation (AID 1512); type: functional
Alkaline phosphatase, placental type, sequence (P05187 whole entry): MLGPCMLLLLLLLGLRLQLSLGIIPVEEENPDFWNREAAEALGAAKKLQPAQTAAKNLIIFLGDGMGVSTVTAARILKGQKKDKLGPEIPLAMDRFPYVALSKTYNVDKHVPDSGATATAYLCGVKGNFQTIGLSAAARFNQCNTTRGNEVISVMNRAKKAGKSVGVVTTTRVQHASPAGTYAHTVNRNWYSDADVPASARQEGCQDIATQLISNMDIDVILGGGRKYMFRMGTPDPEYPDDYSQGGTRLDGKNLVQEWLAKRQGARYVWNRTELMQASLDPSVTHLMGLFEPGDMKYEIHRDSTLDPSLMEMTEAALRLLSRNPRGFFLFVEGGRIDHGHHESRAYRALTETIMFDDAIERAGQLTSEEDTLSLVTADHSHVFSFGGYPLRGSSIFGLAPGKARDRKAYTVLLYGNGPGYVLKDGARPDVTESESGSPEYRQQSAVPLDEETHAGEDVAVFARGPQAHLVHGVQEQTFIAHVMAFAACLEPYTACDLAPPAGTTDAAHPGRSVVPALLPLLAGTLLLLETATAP

[11] = Luminescent dose response cell-based high throughput screening assay for inhibitors of the Janus kinase 2 mutant JAK2V617F. [Related pubchem assays: 1446 (Primary screen.), 1521 (Confirmation assay.), 1486 (Counter screen.)]; type: functional
[12] = biological target: Heat shock protein HSP 90-alpha (Homo sapiens, UniProt P07900); type: functional, organism-based
[13] = NIH3T3 cell viability loss – ATP luminescence, mouse fibroblasts, counter-screen, dose response (AID 2010); type: functional, cell-based;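 further: cells exposed to compound for about 90 hours before reading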
Vero = experiment: mammalian cell viability reduction – secondary assay, cytotoxicity control for West Nile virus antiviral project, dose response (AID 1650); type: functional; settings: Chlorocebus sabaeus
[14] = Trypanosoma cruzi growth suppression in host cells – NIH3T3 host cells, beta-gal luminescence, confirmation (AID 2044); type: functional, cell-based;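 further: intracellular parasites grown in NIH/3T3 mouse fibroblasts as host cells; luminescent beta-galactosidase reporter signal from transgenic T. cruzi replicating inside host cells; inhibitors lower the luminescence signal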
[15] = biological target: G-protein coupled receptor 55 (Homo sapiens, UniProt Q9Y2T6); experiment: selective activators of receptor GPR55 – imaging, U2OS cells, beta-arrestin-GFP redistribution, primary screen (AID 1961); type: functional
G-protein coupled receptor 55, sequence (Q9Y2T6 whole entry, the tested form may be a part): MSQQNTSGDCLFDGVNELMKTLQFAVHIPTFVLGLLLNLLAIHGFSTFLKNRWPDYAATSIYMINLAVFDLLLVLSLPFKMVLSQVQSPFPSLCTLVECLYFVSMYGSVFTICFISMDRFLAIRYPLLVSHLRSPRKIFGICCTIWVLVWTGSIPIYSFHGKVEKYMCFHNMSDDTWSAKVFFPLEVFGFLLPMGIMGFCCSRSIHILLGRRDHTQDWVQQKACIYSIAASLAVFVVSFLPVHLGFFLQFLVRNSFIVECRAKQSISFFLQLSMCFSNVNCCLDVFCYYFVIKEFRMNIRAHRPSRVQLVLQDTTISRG

[16] = biological target: T4, RNA-binding protein pos-1 (Caenorhabditis elegans, UniProt G5EF15); experiment: disruptors of C. elegans POS-1 RNA interaction – biochemical, fluorescence polarization, dose response (AID 1964);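 further: purified POS-1 fused to maltose binding protein made in E. coli; potency of compounds blocking POS-1 binding to fluorescent RNA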
T4 sequence (G5EF15 whole entry): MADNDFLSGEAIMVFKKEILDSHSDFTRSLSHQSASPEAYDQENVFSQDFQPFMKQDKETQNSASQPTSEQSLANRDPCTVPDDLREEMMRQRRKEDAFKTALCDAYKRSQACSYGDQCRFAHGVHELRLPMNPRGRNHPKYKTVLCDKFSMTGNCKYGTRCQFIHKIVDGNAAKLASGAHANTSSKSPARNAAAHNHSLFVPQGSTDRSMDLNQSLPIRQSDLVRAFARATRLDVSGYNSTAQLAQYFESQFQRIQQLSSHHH

[17] = biological target: T5, Zinc finger protein mex-5 (Caenorhabditis elegans, UniProt Q9XUB2); experiment: potency of MEX-5 RNA-binding blockers – biochemical, C. elegans, fluorescence polarization, dose response (AID 1960)
T5 sequence (Q9XUB2 whole entry): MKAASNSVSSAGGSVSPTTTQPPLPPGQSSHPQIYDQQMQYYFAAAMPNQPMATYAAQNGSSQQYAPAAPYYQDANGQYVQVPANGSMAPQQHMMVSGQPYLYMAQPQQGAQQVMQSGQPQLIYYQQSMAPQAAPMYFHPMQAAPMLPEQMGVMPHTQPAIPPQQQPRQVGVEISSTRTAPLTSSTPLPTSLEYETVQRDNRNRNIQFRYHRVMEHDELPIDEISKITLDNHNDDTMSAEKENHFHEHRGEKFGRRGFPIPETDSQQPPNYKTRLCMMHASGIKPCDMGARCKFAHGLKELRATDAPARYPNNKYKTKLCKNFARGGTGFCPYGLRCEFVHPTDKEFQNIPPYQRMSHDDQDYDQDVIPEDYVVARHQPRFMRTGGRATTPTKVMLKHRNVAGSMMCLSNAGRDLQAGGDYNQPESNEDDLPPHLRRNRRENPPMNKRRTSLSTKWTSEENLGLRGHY

Large T antigen = Large T antigen (Simian virus 40, UniProt P03070); type: functional, Betapolyomavirus macacae;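 further: Confirmatory-stage PubChem screen for compounds that inhibit SV40 T antigen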
Large T antigen, sequence (P03070 whole entry): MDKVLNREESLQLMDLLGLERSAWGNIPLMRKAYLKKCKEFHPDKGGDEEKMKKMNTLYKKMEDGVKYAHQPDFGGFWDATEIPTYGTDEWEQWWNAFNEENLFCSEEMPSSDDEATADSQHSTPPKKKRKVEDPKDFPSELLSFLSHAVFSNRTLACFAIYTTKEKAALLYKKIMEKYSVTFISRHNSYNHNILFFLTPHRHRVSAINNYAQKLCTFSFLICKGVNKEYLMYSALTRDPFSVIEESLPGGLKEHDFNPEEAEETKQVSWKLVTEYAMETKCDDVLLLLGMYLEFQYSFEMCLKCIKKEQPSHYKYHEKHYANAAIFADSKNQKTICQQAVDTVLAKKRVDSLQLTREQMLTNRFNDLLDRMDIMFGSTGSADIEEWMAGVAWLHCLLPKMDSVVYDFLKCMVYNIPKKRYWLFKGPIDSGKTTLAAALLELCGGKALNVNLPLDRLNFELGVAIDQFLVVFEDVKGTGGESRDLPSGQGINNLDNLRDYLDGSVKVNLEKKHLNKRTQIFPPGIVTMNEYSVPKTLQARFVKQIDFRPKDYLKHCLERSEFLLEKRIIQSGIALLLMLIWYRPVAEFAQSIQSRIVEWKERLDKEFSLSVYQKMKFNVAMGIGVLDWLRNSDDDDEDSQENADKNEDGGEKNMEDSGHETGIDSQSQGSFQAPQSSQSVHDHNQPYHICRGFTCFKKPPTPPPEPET

[18] = HPDE-C7 pancreatic duct cell viability loss – fluorescence, HTS (AID 430); type: functional, cell-based; settings: Homo sapiens
[19] = viability loss of HPDE-C7K cells – cell-based, fluorescence, HTS, primary screen (AID 431); type: functional; settings: Homo sapiens
[20] = biological target: Glucose-6-phosphate 1-dehydrogenase (Homo sapiens, UniProt P11413); experiment: inhibition of Homo sapiens G6PD, dose series – biochemical, fluorescence, selectivity assay for P. falciparum G6PD inhibitor project, dose response (AID 504792); type: functional
Glucose-6-phosphate 1-dehydrogenase, sequence (P11413 whole entry): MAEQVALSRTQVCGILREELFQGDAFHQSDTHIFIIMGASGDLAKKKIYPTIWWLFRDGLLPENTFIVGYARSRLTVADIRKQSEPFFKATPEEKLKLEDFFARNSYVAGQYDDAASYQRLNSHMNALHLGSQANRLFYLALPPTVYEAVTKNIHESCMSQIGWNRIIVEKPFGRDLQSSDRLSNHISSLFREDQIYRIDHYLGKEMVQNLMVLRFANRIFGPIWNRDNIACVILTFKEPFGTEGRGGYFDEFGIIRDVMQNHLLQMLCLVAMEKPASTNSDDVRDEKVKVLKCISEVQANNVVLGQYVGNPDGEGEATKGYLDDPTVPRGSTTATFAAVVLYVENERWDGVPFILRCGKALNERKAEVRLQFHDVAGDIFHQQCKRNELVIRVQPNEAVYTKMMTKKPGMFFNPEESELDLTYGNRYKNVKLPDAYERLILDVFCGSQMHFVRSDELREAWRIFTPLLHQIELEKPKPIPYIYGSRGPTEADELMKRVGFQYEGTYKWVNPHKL

Estrogen receptor = biological target: T6, Estrogen receptor (Homo sapiens, UniProt P03372);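 further: potency for inhibiting coactivator peptide recruitment to the receptor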
T6 sequence (P03372 whole entry): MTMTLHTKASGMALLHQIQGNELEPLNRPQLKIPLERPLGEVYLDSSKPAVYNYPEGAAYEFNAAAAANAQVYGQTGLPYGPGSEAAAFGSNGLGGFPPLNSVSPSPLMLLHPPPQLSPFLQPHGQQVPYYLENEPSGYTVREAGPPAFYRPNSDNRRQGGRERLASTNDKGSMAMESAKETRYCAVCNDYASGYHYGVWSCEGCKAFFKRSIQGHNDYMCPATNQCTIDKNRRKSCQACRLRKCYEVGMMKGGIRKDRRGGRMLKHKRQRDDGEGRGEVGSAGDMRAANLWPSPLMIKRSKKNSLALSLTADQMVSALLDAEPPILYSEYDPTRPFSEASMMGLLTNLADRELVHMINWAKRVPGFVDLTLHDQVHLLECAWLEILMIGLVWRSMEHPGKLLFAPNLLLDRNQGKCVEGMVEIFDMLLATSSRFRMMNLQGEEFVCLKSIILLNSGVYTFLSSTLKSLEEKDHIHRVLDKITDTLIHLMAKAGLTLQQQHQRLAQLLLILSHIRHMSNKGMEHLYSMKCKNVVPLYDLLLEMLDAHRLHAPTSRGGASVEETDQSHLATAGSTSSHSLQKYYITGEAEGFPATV

14-3-3 protein gamma = 14-3-3 protein gamma (Homo sapiens, UniProt P61981); experiment: modulators of 14-3-3 gamma client binding – dose response (AID 711); type: functional
14-3-3 protein gamma, sequence (P61981 whole entry): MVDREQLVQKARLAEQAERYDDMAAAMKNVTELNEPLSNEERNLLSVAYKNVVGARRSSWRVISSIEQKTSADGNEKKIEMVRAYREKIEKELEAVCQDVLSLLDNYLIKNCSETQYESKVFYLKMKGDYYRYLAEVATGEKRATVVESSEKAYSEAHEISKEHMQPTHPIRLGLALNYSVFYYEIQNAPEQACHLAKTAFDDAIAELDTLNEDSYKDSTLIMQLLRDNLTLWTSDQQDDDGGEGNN

[21] = biological target: T7, Heat shock factor protein 1 (Mus musculus, UniProt P38532); experiment: enhancement of HSF1-driven luciferase signal – cell-based, NIH3T3, luminescence, dose retest, confirmation (AID 435004); type: functional;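 further: stress induced by proteasome inhibitor MG132 added 30 min after compound; luciferase reporter driven by HSF1 response element in NIH3T3 cells; actives raise luminescence as potentiators of the MG132 stress response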
T7 sequence (P38532 whole entry): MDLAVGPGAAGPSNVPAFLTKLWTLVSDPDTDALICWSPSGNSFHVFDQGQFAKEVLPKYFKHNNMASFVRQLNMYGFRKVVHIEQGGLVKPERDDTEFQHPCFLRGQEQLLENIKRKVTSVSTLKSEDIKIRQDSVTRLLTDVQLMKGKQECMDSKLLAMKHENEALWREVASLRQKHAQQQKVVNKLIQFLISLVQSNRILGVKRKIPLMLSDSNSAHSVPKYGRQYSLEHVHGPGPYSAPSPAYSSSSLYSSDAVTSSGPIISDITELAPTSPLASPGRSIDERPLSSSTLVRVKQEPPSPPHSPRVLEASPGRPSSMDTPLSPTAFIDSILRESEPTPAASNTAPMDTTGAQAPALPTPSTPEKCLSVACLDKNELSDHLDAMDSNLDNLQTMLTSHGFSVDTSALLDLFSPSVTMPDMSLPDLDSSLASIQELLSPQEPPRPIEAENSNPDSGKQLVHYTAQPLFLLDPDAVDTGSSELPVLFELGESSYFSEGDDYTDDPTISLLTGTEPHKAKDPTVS

SMILES: Cc1cc(-c2csc(Nc3ccc(C#N)cc3)n2)c(C)n1C
- IC50 [1]: > 50 µM (not active)
- IC50 [2]: > 50 µM (not active)

SMILES: O=C(Nc1ccc(-c2cc3ccccc3oc2=O)c(Cl)c1)c1cccnc1
- IC50 [3]: > 39.8 µM (not active)
- AC50 (Cytochrome P450 2C9): inconclusive
- AC50 (Cytochrome P450 2C19 [4]): inconclusive
- IC50 [5]: > 39.8 µM (not active)
- IC50 [6]: 17.9 µM (inactive)

SMILES: CC(=O)c1ccc(C2C=CC(Oc3ccc(-c4ccccc4)cc3)C(CO)O2)cc1 (stereo unspecified)
- AC50 (Cytochrome P450 2C19 [7]): 0.794 µM (inconclusive)

SMILES: O=C(CSc1nnnn1-c1ccc(F)cc1)c1ccc(O)c(O)c1
- IC50 [8]: 5.98 µM (active)
- IC50 [9]: 80.6 µM (active)
- IC50 [10]: 1.89 µM (active)
- IC50 [11]: 2.16 µM (active)

SMILES: CC(=O)Nc1ccc(Nc2cc(C(C)C)nc3c(-c4ccccc4)c(C)nn23)cc1
- AC50 [12]: 3.84 µM (active)
- EC50 [13]: 10.4 µM (active)
- CC50 (Vero): > 100 µM (active)
- EC50 [14]: 0.211 µM (active)
- EC50 [15]: > 32 µM (inactive)

SMILES: CC(Cc1ccc(O)c(O)c1)C(C)Cc1ccc(O)c(O)c1 (stereo unspecified) [NORDIHYDROGUAIARETIC ACID]
- EC50 [16]: 26.1 µM (active)
- EC50 [17]: 8.75 µM (active)
- IC50 (Large T antigen): 21.9 µM (active)
- EC50 [18]: 9.48 µM (active)
- EC50 [19]: 11.2 µM (active)
- IC50 [20]: > 80 µM (inactive)
- IC50 (Estrogen receptor): 22.2 µM (active)
- IC50 (14-3-3 protein gamma): > 50 µM (not active)
- EC50 [21]: 2.32 µM (active)

From ChEMBL document CHEMBL1201862, “PubChem BioAssay data set” (2004)
